# Experiments:
# [1] = Viability of HTB-157 fetal (normal) fibroblasts; type: cell-based, human; settings: human, MTT
# Protocol: (§1) To quantify cell death, around the time when significant and characteristic morphological changes took place, cells were pulse-labeled for 10 minutes with [^3H]thymidine to measure DNA activity as described elsewhere [Tomono, M. and Kiss, Z. (1995), “Ethanol enhances the stimulatory effects of insulin and insulin-like growth factor-I on DNA synthesis in NIH 3T3 fibroblasts,” Biochem. Biophys. Res. Commun. 208, 63-67]. Also, cells were collected as suspensions using trypsin, an established method in cell biology, followed by re-plating of cells in fresh tissue culture medium. If no viable cells were obtained after one week in culture, it meant that the cells at the time of re-plating were dead. Survival values obtained with untreated cells were considered 100%. For the determination of relative number of viable cells after treatments, in most cases the MTT assay was used. This calorimetric assay is based on the ability of living cells, but not dead cells, to reduce 3-(4,5-dimethyl thiazol-2-yl)-2,5-diphenyltetrazolium bromide [Carmichael, J, De Graff, W. G., Gazdar, A. F., Minna, J. D. and Mitchell, J. B. (1987), “Evaluation of tetrazolium-based semi-automated calorimetric assay: Assessment of chemosensitivity testing,” Cancer Res. 47, 936-942]. For this assay, cells were plated in 96-well plates, and the MTT assay was performed both in untreated and treated cell cultures. The MTT assay also was performed at the start of treatments to allow assessment of proliferation rates in the control and treated cell cultures.
# (§2) NIH3T3, T47D, A-431, HT-29, and MEL-28 cells were cultured as indicated earlier. CaOV-3 human ovarian cancer cells were cultured in DMEM containing 10% FBS. ZR-75-1 human estrogen receptor-positive breast cancer cells were maintained in RPMI 1640 medium supplemented with 10% FBS. HTB-157 human fetal fibroblasts, MEL-24 human malignant melanoma cells, Hep G2 human hepatoblastoma cells, and CaCO-2 human colon adenocarcinoma cells were maintained in Eagles's MEM containing 10% FBS. MB-231 human estrogen receptor-negative breast cancer cells were maintained in Leibovitz's L-15 medium supplemented with 10% FBS. Cells were seeded into 96-well plates and treated at ˜70-90% confluency. Two hours prior to treatments the medium was changed for fresh 10% serum medium, and then the cells were incubated for 10 days in the absence (□) or presence of 50 μM CCDTHT ? or 100 μM CCDTHT (▪). The medium was changed and the cells were re-treated on days 3 and 6. The MTT assay was used to determine cell viability on day 10. The data, shown in FIG. 6, are the mean±std. dev. of 8 incubations in one experiment. (The experiment was repeated twice with similar results).
# (§3) HTB-157, MEL-28, CaOV-3, T47D, and A-431 cells were maintained as indicated earlier. The 3A-SubE post crisis placenta cells (capable of unlimited proliferation) were maintained in Eagle's MEM containing 10% FBS. Cells were seeded into 96-well plates and treated at ˜70-90% confluency. Two hours before treatments the medium was changed for fresh 10% serum medium, and then cells were incubated for 48 hours in the absence (□) or presence of 50 μM CCDTHT ? or 100 μM CCDTHT (▪). Half of the cultures was analyzed by the MTT assay at this point, and the other half of the cultures was incubated for an additional 96 hours in fresh 10% serum-containing medium without CCDTHT followed by the MTT assay. The data, shown in FIG. 8, are the mean±std. dev. of 8 incubations in one experiment. (Similar results were obtained in another experiment).
# (§4) HaCaT keratinocytes, frequently used immortalized model cells for studying psoriatic keratinocytes, and HTB-157 human fetus lung fibroblasts were cultured in 10% FBS-containing Dulbecco's modified Eagle's medium (DMEM). […]
# HTB-157 cells = test: Viability of HTB-157 fetal (normal) fibroblasts; type: cell-based, human
# Protocol: as §1, §2, §3, §4
smiles,measurement,setting,value
"CC[N+](C)(CC)CCOCc1ccc2sc3ccccc3c(=O)c2c1.[I-] [CCDTHT, N,N-diethyl-N-methyl-2-[(9-oxo-9H-thioxanthen-2-yl)methoxy]-ethanaminium iodide]","cytotoxicity at 10 days, 100 μM","[1]; HTB-157 fetal (normal) fibroblasts, 100 μM, 10 days, read-out: reduction in the number of viable cells, HTB-157",≤ 50%
same,cytotoxicity at 48 h,"[1]; HTB-157 fetal lung (normal) fibroblasts, 50-100 μM, 48 hours, read-out: decrease in viability of HTB-157 fibroblasts",20 to 22%
same,"reversibility: proliferation in fresh medium after treatment, HTB-157","HTB-157 cells; 100 μM 48 hours, then 96 hours without CCDTHT",clearly resumed proliferation
same,"decrease in DNA synthesis, HTB-157 fibroblasts","HTB-157 cells; 100 μM, 48 hours",about 16%
same,numbers of re-plated untreated and treated HTB-157 fibroblasts,"HTB-157 cells; 100 μM, re-plated after treatment",practically no difference
same,decrease in viability of HTB-157 fibroblasts,"HTB-157 cells; 50-100 μM, 48 hours, MTT",19-20%
same,"sensitivity compared with HaCaT cells, HTB-157 fibroblasts","HTB-157 cells; 50 and 100 μM, 72 hours, MTT",significantly less sensitive

# — patent US7943606B2, “Compositions and methods to control abnormal cell growth” (CanCure Laboratories, LLC, priority 2005, dated 2011)
